Measured values taken from patent US20110001042A1, “ASSESSING TREATMENT COMPLIANCE” (priority 2007, published 2011).
Values joined by “and” are separate entries in the source; they are usually repeats but may differ in a detail not shown here. Equal values may be shown once.

Assays:
[1] = fluticasone-17β carboxylic acid in urine of patients before, during and after FP therapy by LC-MS/MS; format: in vivo, human
Procedure: Fluticasone-17β carboxylic acid was extracted from urine using an acetonitrile precipitation followed by methylene chloride liquid extraction of the supernatant. Sixty μL of the reconstituted sample extract was analyzed by LC-MS/MS (ABI 4000). The linearity, precision, recovery and limit of quantitation (LOQ) were determined. Measurement of fluticasone-17β carboxylic acid in urine collected daily from patients before (days 1-2), during (days 3-6; total dose Flovent 110 2 puffs daily), and following cessation of FP therapy (days 7-14) was conducted (n=4). The linear range of fluticasone-17β carboxylic acid measured by LC-MS/MS was 10-9510 pg/mL. The LOQ with a CV<20% was 10 pg/mL, and recovery ranged from 85.8-111.9% with a mean of 97.9%. Within-run precision testing indicated a maximum CV of 9.3% at 10.3 pg/mL. Between-run precision CVs for urine pools spiked with 3 concentrations of fluticasone-17 β carboxylic acid were 10.6% at 11.1 pg/mL, 11.2% at 500.9 pg/mL, and 8.7% at 5116 pg/mL. Detection of fluticasone-17β carboxylic acid in urine from patients prior to FP therapy was <10 pg/mL (days 1 & 2), ranged from 157-1830 pg/mL when receiving therapy (days 3-6) and was undetectable 5 days after stopping therapy (days 11-14). An eight-point calibration curve (0, 10, 25, 100, 200, 1000, 2000, and 10000 pg/mL) and three controls (10, 500 and 5000 pg/mL) were prepared in charcoal stripped-urine and included with each assay run. Aliquots of urine were centrifuged for 5 minutes at 1000g to remove particulate matter. A 1.0 mL fraction of each calibrator, control, and urine sample was transferred into an appropriately labeled 12×75 mm glass tube. Internal standard (100 μL of 40 ng/mL fluorometholone working solution per sample) was added to each calibrator, control, and urine sample followed by gentle vortexing and incubation for 5 minutes at ambient temperature. Acetonitrile with 0.1% HCl (1.5 mL/sample) was then added, and tubes were vortexed and centrifuged at 1500g for 10 minutes. […]

[2] = sensitivity and specificity of urine fluticasone 17β carboxylic acid after witnessed fluticasone propionate administration in asthma patients; format: in vivo, human; settings: Fluticasone Administered Under Observation, 16-24 hours before sample
Procedure: In order to evaluate the sensitivity and specificity of fluticasone 17β carboxylic acid, nineteen patients with asthma were recruited. Nine of these subjects were on treatment with fluticasone propionate. As a gold standard of compliance, treatment was documented by an RN study nurse who witnessed the patients' administration of fluticasone propionate 16-24 hours prior to submission of a urine sample for the analysis of fluticasone 17 β carboxylic acid. Urine samples from ten subjects with asthma but not receiving fluticasone propionate were used as controls.

[3] = fluticasone 17β carboxylic acid measured in urine with and without preservatives; format: physicochemical; settings: individual specimens, mean, bias
Procedure: Fluticasone 17β carboxylic acid was measured in urine samples lacking preservatives or urine samples containing one of the following preservatives: boric acid, glacial acetic acid, HCL, toluene, or sodium bicarbonate (Table 5).
In summary, non-preserved urine can be used effectively. Samples acquired with boric acid preservative indicated an individual bias of −0.6 to 5.0% and a mean bias of 1.4% from non-preserved urine specimen. Samples acquired in glacial acetic acid preservative indicated an individual bias of −18.9 to 17.1% and a mean bias of −1.2% from non-preserved urine specimen. Samples acquired in HCL preservative indicated an individual bias of −14.5 to 9.1% and a mean bias of −5.8% from non-preserved urine specimen. Samples acquired in sodium bicarbonate preservative indicated an individual bias of −94.7 to −92.5% and a mean bias of −93.8% from non-preserved urine specimen. Samples acquired in toluene preservative indicated an individual bias of −10.6 to 9.8% and a mean bias of 0.3% from non-preserved urine specimen. Thus, urine containing boric acid, glacial acetic acid, HCL, or toluene are acceptable. Urine containing sodium bicarbonate preservative is not as acceptable.

[4] = stability of fluticasone 17β carboxylic acid in pooled urine stored ambient, refrigerated or freeze/thaw; format: physicochemical; settings: for % Diff. 3: Ambient, Day 3; for % Diff 7: Day 7
Procedure: Fluticasone 17β carboxylic acid was measured in pooled urine samples lacking preservatives that were stored at ambient temperature, were refrigerated, or were frozen and subjected to freeze/thaw cycles (Table 6).
Fluticasone 17β carboxylic acid was measured in pooled urine samples containing boric acid as a preservative that were stored at ambient temperature, were refrigerated, or were frozen and subjected to freeze/thaw cycles (Table 7).
Fluticasone 17β carboxylic acid was measured in pooled urine samples containing glacial acetic acid as a preservative that were stored at ambient temperature, were refrigerated, or were frozen and subjected to freeze/thaw cycles (Table 8).
Fluticasone 17β carboxylic acid was measured in pooled urine samples containing hydrochloric acid as a preservative that were stored at ambient temperature, were refrigerated, or were frozen and subjected to freeze/thaw cycles (Table 9).
Fluticasone 17β carboxylic acid was measured in pooled urine samples containing toluene as a preservative that were stored at ambient temperature, were refrigerated, or were frozen and subjected to freeze/thaw cycles (Table 10).

CCC(=O)O[C@]1(C(=O)O)[C@H](C)C[C@H]2[C@@H]3C[C@H](F)C4=CC(=O)C=C[C@]4(C)[C@@]3(F)[C@@H](O)C[C@@]21C [Fluticasone 17β carboxylic acid]
fluticasone-17β carboxylic acid in urine ([1]; 5 days after stopping therapy (days 11-14)): undetectable
fluticasone-17β carboxylic acid in urine ([1]; patients prior to FP therapy (days 1 & 2)): < 10 pg/mL
fluticasone-17β carboxylic acid in urine ([1]; patients receiving therapy (days 3-6; Flovent 110 2 puffs daily)): 157 to 1830 pg/mL
Negative Urine (number of subjects) [2]: 0
Positive Urine (number of subjects) [2]: 9
% Difference between No Pres & HCL ([3]; urine with HCL): −14.5 to 9.1% and −5.8% and 9.1% and −12.1% and −14.5%
% Difference between No Pres & BA ([3]; urine with boric acid): −0.6 to 5.0% and 1.4% and 5.0% and −0.6% and −0.3%
% Difference between No Pres & GAA ([3]; urine with glacial acetic acid): −18.9 to 17.1% and −1.2% and 17.1% and −1.7% and −18.9%
% Difference between No Pres & Na2CO3 ([3]; urine with sodium bicarbonate): −94.7 to −92.5% and −93.8% and −94.2% and −94.7% and −92.5%
% Difference between No Pres & Toluene ([3]; urine with toluene): 0.3% and −10.6 to 9.8% and −10.6% and 9.8% and 1.6%
time stable ([4]; boric acid-preserved urine, ambient temperature): 7 days
freeze-thaw cycles stable ([4]; boric acid-preserved urine, frozen): up to 1 freeze-thaw cycle
time stable ([4]; boric acid-preserved urine, refrigerated): 3 days
time stable ([4]; glacial acetic acid-preserved urine, ambient temperature): 7 days
freeze-thaw cycles stable ([4]; glacial acetic acid-preserved urine, frozen): up to 2 freeze-thaw cycles
time stable ([4]; hydrochloric acid-preserved urine, ambient temperature): 7 days
freeze-thaw cycles stable ([4]; hydrochloric acid-preserved urine, frozen): up to 1 freeze-thaw cycle
time stable ([4]; hydrochloric acid-preserved urine, refrigerated): 3 days
time stable ([4]; non-preserved urine, ambient temperature): 3 days
freeze-thaw cycles stable ([4]; non-preserved urine, frozen): up to 3 freeze-thaw cycles
time stable ([4]; non-preserved urine, refrigerated): 7 days
freeze-thaw cycles stable ([4]; toluene-preserved urine, immediately frozen): up to 3 freeze-thaw cycles
% Diff. 3 ([4]; urine Boric Acid): 1.2% and −1.3% and −7.9%
% Diff. 3 ([4]; urine Boric Acid, mean): −2.7%
% Diff. 1 ([4]; urine Boric Acid, Freeze/Thaw, F/T 1): −9.3% and −5.4% and −10.1%
% Diff. 1 ([4]; urine Boric Acid, Freeze/Thaw, F/T 1, mean): −8.3%
% Diff 7 ([4]; urine Boric Acid, Refrigerated): −14.5% and −10.1% and −16.3%
% Diff 7 ([4]; urine Boric Acid, Refrigerated, mean): −13.7%
% Diff. 1 ([4]; urine HCL, Refrigerated, Day 1): −4.6% and −2.6% and −9.5%
% Diff. 1 ([4]; urine HCL, Refrigerated, Day 1, mean): −5.6%
% Diff 7 ([4]; urine HCL, Refrigerated): −17.1% and −8.5%
% Diff 7 ([4]; urine HCL, Refrigerated, mean): −11.4%
% Diff. 1 ([4]; urine Toluene, Refrigerated, Day 1): −19.5% and −12.4% and −11.4%
% Diff. 1 ([4]; urine Toluene, Refrigerated, Day 1, mean): −14.4%
% Diff. 1 ([4]; urine no pres, Freeze/Thaw, F/T 1): 0.0% and −6.6% and −6.1%
% Diff. 1 ([4]; urine no pres, Freeze/Thaw, F/T 1, mean): −4.2%
% Diff. 1 ([4]; urine no pres, Refrigerated, Day 1): −7.5% and −4.4% and −11.5%
% Diff. 1 ([4]; urine no pres, Refrigerated, Day 1, mean): −7.8%
